How the values were obtained:
human purine NP = target: T1, human purine NP (Homo sapiens, UniProt P00491); experiment: HPLC of glycosylation products; assay type: biochemical; conditions: 500 µM X, 500 µM ribose 1-phosphate; 1 g/L enzyme; pH 9 or pH 7; 50 °C
T1 construct: gene PNP
T1 sequence (P00491 1-289): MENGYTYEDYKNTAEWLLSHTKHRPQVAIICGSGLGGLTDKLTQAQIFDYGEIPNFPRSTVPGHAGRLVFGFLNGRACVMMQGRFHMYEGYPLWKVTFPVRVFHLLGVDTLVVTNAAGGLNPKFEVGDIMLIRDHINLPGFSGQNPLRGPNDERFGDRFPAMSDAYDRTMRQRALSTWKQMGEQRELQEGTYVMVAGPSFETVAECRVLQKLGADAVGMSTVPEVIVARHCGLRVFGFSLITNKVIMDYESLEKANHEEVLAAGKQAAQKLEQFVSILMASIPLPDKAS

[1] = target: T2, GtPyNP (pyrimidine NP from G. thermoglucosidasius) (Parageobacillus thermoglucosidasius, UniProt A0AAN0YQC1); experiment: HPLC of glycosylation products; assay type: biochemical; conditions: 500 µM X, 500 µM ribose 1-phosphate; 1 g/L enzyme; pH 9 or pH 7; 50 °C
T2 construct: gene deoA
T2 sequence (A0AAN0YQC1 entry or part of it): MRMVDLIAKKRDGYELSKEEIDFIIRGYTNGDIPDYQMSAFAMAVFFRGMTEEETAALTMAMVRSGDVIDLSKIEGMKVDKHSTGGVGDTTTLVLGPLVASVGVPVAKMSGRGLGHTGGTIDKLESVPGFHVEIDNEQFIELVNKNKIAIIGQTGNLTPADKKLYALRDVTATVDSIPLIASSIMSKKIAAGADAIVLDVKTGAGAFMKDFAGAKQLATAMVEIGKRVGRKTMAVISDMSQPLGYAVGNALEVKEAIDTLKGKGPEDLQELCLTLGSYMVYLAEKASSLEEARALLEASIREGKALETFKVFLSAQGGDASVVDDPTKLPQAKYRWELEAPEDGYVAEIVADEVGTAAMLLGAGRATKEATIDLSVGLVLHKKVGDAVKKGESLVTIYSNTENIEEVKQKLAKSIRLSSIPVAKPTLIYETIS

HPLC of glycosylation products (human purine NP) | SMILES | HPLC of glycosylation products [1]
mammalian NPs (human purine NP) | O=P(O)(O)O[C@H]1O[C@H](CO)[C@@H](O)[C@H]1O [Rib1P, ribose 1-phosphate] | purine and pyrimidine NP from Geobacillus thermoglucosidasius
mammalian NPs (human purine NP) | O=c1[nH]c(=O)c2[nH]cnc2[nH]1 [X, xanthine] | purine and pyrimidine NP from Geobacillus thermoglucosidasius
